# Assay results as given in US20190359941A1, “SUBSTITUTED AZOLE DERIVATIVES FOR GENERATION, PROLIFERATION AND DIFFERENTIATION OF HEMATOPOIETIC STEM AND PROGENITOR CELLS” (NATIONAL UNIVERSITY OF SINGAPORE, priority 2016, published 2019).
# “Also recorded” adds a separate entry of the source. Where two headings read alike, the source gives them in different places.
# What was measured:
# UCB-MNC expanded cells = conditions: 5.0 μM; ACF; 11 days (FIG. 13E)
# Protocol: UCB-MNC samples were fixed with modified Carnoy's fixative (Leica Biosystems, Germany) and placed onto glass microscope slides, and then dehydrated through an ethanol (Sigma-Aldrich, USA) series (70%, 85% and 100%) for 2 minutes followed by air-drying.
# FISH assays were carried out using a panel of probes (Abbott Molecular, USA) comprising LSI D7S486 SpectrumOrange™/CEP 7 SpectrumGreen™, CEP 8 SpectrumAqua™/LSI MYC SpectrumOrange™, LSI CDKN2A SpectrumOrange™/CEP 9 SpectrumGreen™, LSI ABL1 SpectrumOrange™/BCR SpectrumGreen™ dual fusion translocation probe, LSI MLL dual color break-apart probe, LSI ETV6 SpectrumGreen™/RUNX1 SpectrumOrange™ extra signal dual color translocation probe, and LSI TP53 SpectrumOrange™/CEP 17 SpectrumGreen™ probe set. The FISH probes were applied to the fixed cells and co-denatured at 75° C., followed by an overnight hybridization at 37° C. Washes were performed and the slide was counterstained with DAPI anti-fade solution (Vectashield, Vector Laboratories, USA) and analyzed using an epi-fluorescence microscope (Leica, Germany).
# Signals from 100 non-overlapping nuclei were enumerated for loss of LSI D7S486, trisomy 8, loss of CDKN2A, translocation involving ABL1 and BCR, MLL break-apart, translocation involving ETV6 and RUNX1, and loss of TP53. […]
# [1] = system: CD45+ leukocytes of UCB-MNC; conditions: 5.0 μM; 72 hours / day 3; frozen-thawed MNC (FIG. 7)
# Protocol: SB203580, DMSO and cytokines alone in serum-free expansion media (SFEM) served as the reference compound, vehicle and blank control, respectively. Data represents mean±SEM for n=3.
# Annexin-V-FITC (Beckman Coulter, Inc., USA), 7-AAD (Beckman Coulter, Inc., USA) and CD45-PE-Cy7 were used for CD45+ cell viability analysis.
# All compounds were assessed for their ability to maintain the viability of CD45+ leukocytes using Annexin V and 7-AAD. Induction of apoptosis in the CD45+ cells during ex vivo cultures limits expansion of HSPC.
# [2] = system: hematopoietic progenitor cells (HPC: CD45+CD34+CD38−CD45RA−); experiment: Ex vivo expansion of hematopoietic progenitor cells from non-enriched UCB mononuclear cells; conditions: for enhancement of HPC expansion compared to cytokine control: 11 days (FIG. 9A); for relative effectiveness in inducing ex vivo expansion of HPC/HSPC (in words): among all the compounds screened
# [3] = system: total nucleated cells (TNC); conditions: for expansion of TNC reduced, compared to 5.0 μM: 11 days (FIG. 9A)
# Source text: UCB was obtained through Singapore Cord Blood Bank (SCBB), from donated units failing to meet the criteria for clinical banking. Prior consent was obtained from the donating mothers and the Research Advisory Ethics Committee of the SCBB, along with the Institutional Review Boards of National University of Singapore (NUS), and Singapore General Hospital (SGH) approved the usage of the samples. Mononuclear cells (MNC) were isolated from the fresh UCB by density gradient centrifugation using Ficoll-Histopaque™ Premium (GE Healthcare, UK). Counted UCB-MNC was cryopreserved in 90% v/v autologous plasma with 10% v/v dimethyl-sulfoxide (DMSO) (Sigma Aldrich, USA) for subsequent usage. UCB-MNC was thawed using human serum albumin (25% v/v) (Health Sciences Authority, Singapore) and Dextran 40 (75% v/v) (Hospira, USA). […] For certain experiments, cell cultures were initiated with purified populations such as early (CD45+CD34+CD38−) or late (CD45+CD34+CD38+) progenitor cells at optimal plating concentration of 5.0×10^4 cells/ml or 2.0×10^6 cells/ml, respectively. Such pure populations were obtained by labeling the frozen-thawed, non-enriched UCB-MNC using fluorescence conjugated antibodies followed by fluorescence activated cell sorting (FACS). The substituted azole-based small molecules dissolved in DMSO were added to the cultures at an empirically determined optimal concentration of 5.0 μM. UCB-MNC cultures devoid of small molecules but supplemented with cytokines served as control, while cultures supplemented with cytokines and DMSO served as vehicle control.
# Cell cultures for in vitro experiments were done in 6- or 24-well plates (BD Falcon, USA), while culturing for in vivo transplantation studies was carried out in T-175 flasks (Corning, USA). Cell cultures were maintained in a humidified, 5% carbon dioxide incubator at 37° C. for the required duration. For UCB expansion evaluation and animal experimentation, an established 10-11-day expansion protocol was used which included cytokine and small molecule replenishment on day 7. At completion of incubation, cells were aspirated from the culture-ware with subsequent rinsing by Dulbecco's phosphate buffered saline (DPBS) (Hyclone, USA). The extracted cells were counted using an automated differential hematology cell counter (COULTER® AcT™ diff Hematology Analyzer, Beckman Coulter Inc, USA) and re-suspended in DPBS for subsequent in vitro analysis or transplantation in mice.
# CD34+ cells = conditions: 5.0 μM; 11 days (FIG. 17H)
# [4] = system: HSC2 (CD45+CD34+CD38−CD45RA−CD90+CD49f+); experiment: Ex vivo expansion of HSC2 from UCB-MNC; conditions: 5.0 μM; SFEM; over 10 days (FIG. 13C)
# Source text: Mononuclear cells (MNC) were isolated from the fresh UCB by density gradient centrifugation using Ficoll-Histopaque™ Premium (GE Healthcare, UK). Counted UCB-MNC was cryopreserved in 90% v/v autologous plasma with 10% v/v dimethyl-sulfoxide (DMSO) (Sigma Aldrich, USA) for subsequent usage. UCB-MNC was thawed using human serum albumin (25% v/v) (Health Sciences Authority, Singapore) and Dextran 40 (75% v/v) (Hospira, USA). […] For certain experiments, cell cultures were initiated with purified populations such as early (CD45+CD34+CD38−) or late (CD45+CD34+CD38+) progenitor cells at optimal plating concentration of 5.0×10^4 cells/ml or 2.0×10^6 cells/ml, respectively. Such pure populations were obtained by labeling the frozen-thawed, non-enriched UCB-MNC using fluorescence conjugated antibodies followed by fluorescence activated cell sorting (FACS). The substituted azole-based small molecules dissolved in DMSO were added to the cultures at an empirically determined optimal concentration of 5.0 μM. […]
# Cell cultures were maintained in a humidified, 5% carbon dioxide incubator at 37° C. for the required duration. […] The extracted cells were counted using an automated differential hematology cell counter (COULTER® AcT™ diff Hematology Analyzer, Beckman Coulter Inc, USA) and re-suspended in DPBS for subsequent in vitro analysis or transplantation in mice. […]
# [5] = system: colony forming unit (CFU) - granulocyte, macrophage (GM); conditions: 5.0 μM; SFEM; 10 days (FIG. 9B)
# Protocol: Colony-forming units (CFU) of granulocyte-monocyte (GM) from freshly thawed UCB-MNC or 11 days expanded cells of the mentioned cell cultures were evaluated. Duplicates of freshly thawed UCB-MNC (5,000 and 10,000 cells) and expanded cells (1,000 and 5,000 cells) were cultured in 35 mm petri dishes (BD Falcon, USA) in 1.1 mL of hematopoietic stem cell (HSC)-CFU complete media with erythropoietin (EPO) (Miltenyi Biotec, Germany) without any further media manipulation. After 14-16 days in culture in a humidified environment at 37° C. and 5% CO2, colonies were scored and pictured using a SZ61 Olympus microscope equipped with charge-coupled device (CCD) camera (Olympus Europa GmbH, Germany).
# CD34 cells = conditions: cited from earlier work
# [6] = 5.0 μM, SFEM, 10 days (FIG. 8C)
# [7] = IM-29 mediated expansion of UCB
compound,measurement,setting,value
"Fc1ccc(-c2nc(-c3ccc4ccccc4c3F)[nH]c2-c2ccncc2)cc1 [IM-29, 4-[2-(1-fluoronaphthalen-2-yl)-4(5)-(4-fluorophenyl)-1H-imidazol-5(4)-yl]pyridine]",FISH results with probes relating to hematological malignancies,UCB-MNC expanded cells,normal results
same,acute toxicity to UCB cells (CD45+ viability),[1],minimal toxicity
same,enhancement of HPC expansion compared to cytokine control,"[2]; 1.0 μM, ACF",2.7 fold
same,enhancement effect for HPC expansion compared to cytokine control,"[2]; 5.0 μM, 10 days (FIG. 8A)",8 fold
same,boost of HPC expansion on increasing culturing period from 7 days to 9 days,"[2]; 5.0 μM, ACF (FIG. 11)",at least 5 fold
same,"expansion of HPC, IM-29 added at both day 0 and day 7 (Group 1)","[2]; 5.0 μM, ACF, 10 days (FIG. 12)",≥ 450 fold
same,enhancement of HPC expansion compared to cytokine control,"[2]; 5.0 μM, ACF",3.6 fold
same,HPC-associated expression of CD45+CD34+CD38−CD45RA−,[2]; [6],about 68%
same,"HPC-associated expression, fold higher than cytokine control",[2]; [6],3 fold
same,"expansion of HPC, IM-29 added at both day 0 and day 7 (Group 1)","[2]; 5.0 μM, SFEM, 10 days (FIG. 12)",at least 750 fold
same,enhancement of HPC expansion compared to cytokine control,"[2]; 10.0 μM, ACF",2.4 fold
same,HPC expansion reduced compared to Group 1 when IM-29 not replenished on day 7 (Group 2),"[2]; IM-29 at day 0 only, 10 days (FIG. 12)",at least 0.7 fold
same,expansion of HPC (summary),[2]; [7],"at least 1,000 fold"
same,HPC expansion with IM-29 and a single cytokine,"[2]; S+IM, T+IM, F+IM or IG+IM (data not shown)",minimal expansion
same,"HPC expansion, fold higher than the four cytokines culture","[2]; S+T+F+IG+IM-29 vs four cytokines, ACF, 11 days (FIG. 1)",at least 4.7 fold
same,HPC expansion,"[2]; S+T+F+IM-29 5.0 μM, ACF, 11 days (FIG. 1)",1265.2±39.1 fold
same,HPC expansion enhancement effect vs S+T+F,"[2]; S+T+F+IM-29 vs S+T+F, ACF, 11 days (FIG. 1)",2.6 fold
same,HPC expansion,"[2]; SCF+TPO+FLT-3L+IGFBP-2+IM-29 5.0 μM, ACF, 11 days (FIG. 1)",1513.9±6.4 fold
same,relative effectiveness in inducing ex vivo expansion of HPC/HSPC (in words),[2]; 5.0 μM,most effective of those tested; also recorded: most effective compound
same,augmentation of HPC expansion when IM-29 is added to basal cocktail,"[2]; basal cocktail S+IG+T, ACF, 11 days (FIG. 1)",two-fold
same,"HPC expansion of Group 1, fold higher than cytokine control Group 3","[2]; irrespective of basal culture media, 10 days (FIG. 12)",at least 12 fold
same,"effect on expanding HSPC, IM-29 added only at day 7 (Group 4)","[2]; not added at start of culture, 10 days (FIG. 12)",negligible effect
same,HPC expansion with IM-29 alone,[2]; without any cytokines (data not shown),did not support the expansion of HPC
same,"expansion of TNC reduced, compared to 5.0 μM","[3]; 1.0 μM IM-29, ACF",0.83 fold
same,increase of total nucleated cells (TNC) compared to starting cell number,"[3]; 5.0 μM, ACF, by day 11 (FIG. 11)",about 6 fold
same,"expansion of TNC reduced, compared to 5.0 μM","[3]; 10 μM IM-29, ACF",0.70 fold
same,increase of total nucleated cells (summary),[3]; [7],at least 5 fold
same,"CD34+ cell expansion, fold higher compared to cytokine control cultures",CD34+ cells,approximately 1.9 fold
same,HSC2 expansion enhancement compared to cytokine-only control,[4],at least 7.5 fold
same,expansion of colony forming units (CFU) compared to non-cultured cells,[5],at least 100 fold
"CC(C)n1cnc2c(NCCc3ccc(O)cc3)nc(-c3csc4ccccc34)nc21 [SR-1, stemregenin-1]",median CD34 expansion,"CD34 cells; cultures lasting up to 15 days, Wagner et al. 2016",330 fold
"Fc1ccc(-c2nc(-c3ccc4ccccc4c3)[nH]c2-c2ccncc2)cc1 [ZQX-33, 4-[2-(naphthalen-2-yl)-4(5)-(4-fluorophenyl)-1H-imidazol-5(4)-yl]pyridine]",HPC expansion capacity reduced relative to IM-29,"[2]; naphthalen-2-yl instead of 1-fluoronaphthalen-2-yl at C2, P<0.001",at least 2 fold
"Cc1cccc(-c2nc(-c3ccc4ccccc4c3F)[nH]c2-c2ccncc2)c1 [IM-04, 4-[2-(1-fluoronaphthalen-2-yl)-4-(m-tolyl)-1H-imidazol-5-yl]pyridine]",relative effectiveness in inducing ex vivo expansion of HPC/HSPC (in words),[2]; 5.0 μM,second most effective compound
"Cc1cccc(-c2oc(-c3ccc4ccccc4c3F)nc2-c2ccncc2)c1 [OZ-07, 2-(1-fluoronaphthalen-2-yl)-4-(pyridin-4-yl)-5-(m-tolyl)oxazole]",relative effectiveness in inducing ex vivo expansion of HPC/HSPC (in words),[2]; 5.0 μM,not optimally active
"NC(=O)c1cccnc1 [NAM, nicotinamide]",increase of CD34 cells,"CD34 cells; over 21 days, Horwitz et al. 2014",72 fold
